Measured values as given in PMC12621200, “Giving an Enzyme Scissors: Serotonin Derivatives as Potent Organocatalytic Switches for DNA Repair Enzyme OGG1” (Journal of Medicinal Chemistry, 2025).
≈ marks a conversion by molar mass, not a printed value. Entries after “also recorded” stand apart in the source; their conditions may differ.

Assays:
[1] = Kinetic solubility assay in PBS; type: physicochemical; conditions: phosphate-buffered saline, 25 °C, aqueous buffer, kinetic from dmso stock; kinetic solubility in PBS buffer (pH 7.4); read-out: aq. solubility
[2] = Microsomal stability assay; type: in vitro ADME, human; conditions: pH 7.4; human liver microsomes
[3] = target: T1, OGG1 (Homo sapiens, UniProt O15527); assay: NaBH4 Schiff-base trapping assay; type: biochemical; conditions: AP or 8-oxoG DNA substrates; 6.25 μM TH10785, 6.25 μM 30, 10 μM 38
T1 construct: made in house

[4] = target: T1, OGG1; assay: hOGG1 activity assay on radiolabeled 8-oxoG-containing oligonucleotide (urea-PAGE); type: biochemical
[5] = basic nitrogen; cited from earlier work
[6] = Microsomal stability assay; type: in vitro ADME; conditions: pH 7.4; mouse liver microsomes
[7] = Caco-2 permeability assay; type: in vitro ADME; conditions: human, Caco-2, pH 7.4
[8] = system: BJ-RAS and BJ-TERT cell lines; assay: Resazurin cell viability assay for toxicity testing; type: cell-based
[9] = system: activated peripheral blood mononuclear cells (human T cells); assay: Activated peripheral blood mononuclear cell proliferation assay; type: cell-based
[10] = target: T1, OGG1; assay: Biochemical fluorescence (fluorophore-quencher) assay of OGG1 incision rate, 8-oxoA substrate
[11] = system: panel of DNA glycosylases and NUDIX nucleotide binding proteins; assay: Selectivity: lowest IC50 in glycosylase/NUDIX panel divided by OGG1 AC50; type: biochemical; conditions: lowest IC50 against panel / OGG1 AC50

T1 sequence (O15527 whole entry): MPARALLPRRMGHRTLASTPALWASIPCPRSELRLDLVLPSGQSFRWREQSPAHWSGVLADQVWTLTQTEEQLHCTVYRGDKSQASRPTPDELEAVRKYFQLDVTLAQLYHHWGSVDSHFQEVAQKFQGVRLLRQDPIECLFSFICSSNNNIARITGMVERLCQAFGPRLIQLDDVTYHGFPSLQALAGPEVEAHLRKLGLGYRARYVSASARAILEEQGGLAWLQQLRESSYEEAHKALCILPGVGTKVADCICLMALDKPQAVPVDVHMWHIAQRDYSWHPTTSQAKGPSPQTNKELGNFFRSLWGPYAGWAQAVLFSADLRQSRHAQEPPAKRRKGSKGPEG

solubility at 2 h [1]: 6 µM (≈ 1.6 µg/mL)
microsomal CLint at 2 μM [2]: 18 µL/min/mg
effect on level of cross-linked product (Schiff-base formation) [3]: no discernible effect
microsomal CLint at 2 μM [6]: 347 µL/min/mg
Papp A→B at 90 min, 10 µM [7]: 1.5 ×10⁻⁶ cm/s
Papp B→A at 90 min, 10 µM [7]: 4.9 ×10⁻⁶ cm/s
efflux ratio at 90 min, 10 μM ([7]; P app (B to A) / P app (A to B)): 3.3
AcLE ([10]; (1.37/#heavy atoms) × pAC50): 0.419
AC50 ([10]; concentration giving 50% of the incision rate of OGG1 with APE1 (2 nM) control, read-out: AC50 (CI95%)): 870 nM
AcLLE ([10]; pAC50 – clogP): 1.57
selectivity [11]: >120-fold
Structure (SMILES): c1ccc2c(NC3CCCCC3)nc(C3CC3)nc2c1 [TH10785, reference compound]
stimulation of OGG1 AP lyase activity (incised substrate after 4 min) ([4]; 6.25 μM TH10785, 6.25 μM 30, 10 μM 38, 10 nM hOGG1): Stimulation of OGG1 AP lyase activity was observed
incision mode ([4]; elimination products of AP-site cleavage): both β and β,δ-elimination products and β,δ
pK a [5]: ≈ 6.55
toxicity in words ([8]; BJ-TERT and BJ-RAS cells, 30 at 100 μM over several days): some toxicity
toxicity ([8]; incubation in BJ-RAS and BJ-TERT cell lines): > 18 µM
effect on proliferation ([9]; CD3/CD28/IL-2 activated cells, 96 h): suppresses proliferation in a dose-dependent manner at 10 and 20 μM; also recorded: inhibits proliferation
toxicity ([9]; value obtained using PBMCs): 20 µM
